Measurements: ChEMBL document CHEMBL3886705, “Cyanomethylpyrazole carboxamides as janus kinase inhibitors” (2016)
Several values for one entry are separate records, joined by “and”; a condition that tells them apart may be missing. Identical values can stand only once.

Key:
[1] = biological target: Tyrosine-protein kinase JAK2 (Homo sapiens, UniProt O60674)
[2] = biological target: Tyrosine-protein kinase JAK1 (Homo sapiens, UniProt P23458); assay: Subsequent reagent additions employed an Agilent Bravo.
Chain of Tyrosine-protein kinase JAK1 (P23458 whole entry): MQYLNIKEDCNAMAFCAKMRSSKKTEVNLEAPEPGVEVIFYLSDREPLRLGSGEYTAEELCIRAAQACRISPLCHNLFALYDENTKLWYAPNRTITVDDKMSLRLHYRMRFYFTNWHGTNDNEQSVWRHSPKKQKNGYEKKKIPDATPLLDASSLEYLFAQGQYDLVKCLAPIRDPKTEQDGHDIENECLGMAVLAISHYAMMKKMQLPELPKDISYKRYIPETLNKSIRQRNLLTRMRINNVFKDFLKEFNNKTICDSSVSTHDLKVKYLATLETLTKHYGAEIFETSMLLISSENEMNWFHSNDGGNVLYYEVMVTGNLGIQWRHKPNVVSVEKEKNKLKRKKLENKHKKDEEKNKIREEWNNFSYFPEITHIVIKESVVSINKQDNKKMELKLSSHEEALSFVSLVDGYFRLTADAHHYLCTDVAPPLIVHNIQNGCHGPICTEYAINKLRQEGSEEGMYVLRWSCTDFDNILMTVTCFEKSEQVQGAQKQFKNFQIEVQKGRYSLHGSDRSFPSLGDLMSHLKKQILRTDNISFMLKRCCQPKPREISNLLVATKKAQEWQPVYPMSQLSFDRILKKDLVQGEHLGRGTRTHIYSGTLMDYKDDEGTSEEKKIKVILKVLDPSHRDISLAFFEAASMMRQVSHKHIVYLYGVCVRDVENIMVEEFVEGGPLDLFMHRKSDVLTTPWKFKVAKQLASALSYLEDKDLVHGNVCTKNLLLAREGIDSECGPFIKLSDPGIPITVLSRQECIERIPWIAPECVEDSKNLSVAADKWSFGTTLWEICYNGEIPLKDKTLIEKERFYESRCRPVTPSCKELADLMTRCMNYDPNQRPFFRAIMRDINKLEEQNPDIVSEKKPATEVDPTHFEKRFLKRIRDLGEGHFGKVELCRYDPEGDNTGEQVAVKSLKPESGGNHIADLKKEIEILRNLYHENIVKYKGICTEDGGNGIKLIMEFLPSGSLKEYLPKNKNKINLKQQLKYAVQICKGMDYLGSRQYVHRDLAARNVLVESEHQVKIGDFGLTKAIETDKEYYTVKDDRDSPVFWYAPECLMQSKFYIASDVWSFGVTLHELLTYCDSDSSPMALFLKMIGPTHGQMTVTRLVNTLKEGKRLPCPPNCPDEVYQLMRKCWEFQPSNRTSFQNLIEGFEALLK

Chain of Tyrosine-protein kinase JAK2 (O60674 whole entry): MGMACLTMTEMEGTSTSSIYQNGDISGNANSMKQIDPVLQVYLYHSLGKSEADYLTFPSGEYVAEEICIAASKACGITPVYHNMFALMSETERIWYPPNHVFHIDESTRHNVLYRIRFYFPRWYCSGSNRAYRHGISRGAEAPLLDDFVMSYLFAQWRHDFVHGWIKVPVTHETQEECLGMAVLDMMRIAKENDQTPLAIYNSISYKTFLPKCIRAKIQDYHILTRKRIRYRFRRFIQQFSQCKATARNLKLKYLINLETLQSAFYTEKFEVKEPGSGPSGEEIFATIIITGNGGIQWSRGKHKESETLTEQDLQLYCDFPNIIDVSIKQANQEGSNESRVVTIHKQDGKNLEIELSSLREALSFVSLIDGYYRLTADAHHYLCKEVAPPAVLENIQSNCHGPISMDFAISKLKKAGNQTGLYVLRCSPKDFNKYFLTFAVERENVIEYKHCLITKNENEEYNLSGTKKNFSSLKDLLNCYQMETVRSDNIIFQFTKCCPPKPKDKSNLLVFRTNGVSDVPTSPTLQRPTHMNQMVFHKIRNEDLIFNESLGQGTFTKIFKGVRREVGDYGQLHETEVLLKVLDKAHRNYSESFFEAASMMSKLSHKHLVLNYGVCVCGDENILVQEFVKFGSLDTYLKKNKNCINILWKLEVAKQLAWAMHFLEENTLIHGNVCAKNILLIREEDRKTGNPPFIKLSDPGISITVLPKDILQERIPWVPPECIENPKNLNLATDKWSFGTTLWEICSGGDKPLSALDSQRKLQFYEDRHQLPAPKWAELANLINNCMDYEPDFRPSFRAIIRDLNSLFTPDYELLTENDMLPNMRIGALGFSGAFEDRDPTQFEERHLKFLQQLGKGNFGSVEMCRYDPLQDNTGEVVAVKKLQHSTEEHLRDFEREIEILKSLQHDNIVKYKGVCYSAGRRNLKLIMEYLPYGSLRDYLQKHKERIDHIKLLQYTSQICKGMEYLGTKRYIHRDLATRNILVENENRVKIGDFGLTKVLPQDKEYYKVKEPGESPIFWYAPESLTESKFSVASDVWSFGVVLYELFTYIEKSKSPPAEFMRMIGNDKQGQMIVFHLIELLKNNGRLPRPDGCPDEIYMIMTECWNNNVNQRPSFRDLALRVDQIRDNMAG

Structure (SMILES) | IC50 [1] | IC50 [2]
CC(C)(C)OC(=O)N1CCC(CC#N)(n2cc(C(N)=O)c(Nc3cc(Cl)nc(Cl)c3)n2)CC1 | 33 nM | 1 nM
CN(C)C(=O)c1ccc(Nc2nn(C3(CC#N)CCN(C(=O)OC(C)(C)C)CC3)cc2C(N)=O)cc1 | 2 nM | 0.7 nM
N#CCC1(n2cc(C(N)=O)c(Nc3ccnc(F)c3)n2)CCC(N)CC1 (stereo not given) | > 1500 nM and 161 nM | –
